biological target: T1, FBXL10 (Homo sapiens, UniProt Q8NHM5); test: FBXL10 in vitro enzyme inhibition assay (AlphaScreen); type: biochemical; details: Table 3; 0.3 nM FBXL10, H3K36me2-biotin labeled peptide
T1 construct: purchased BPS Bioscience 50120
T1 sequence (Q8NHM5 1-650): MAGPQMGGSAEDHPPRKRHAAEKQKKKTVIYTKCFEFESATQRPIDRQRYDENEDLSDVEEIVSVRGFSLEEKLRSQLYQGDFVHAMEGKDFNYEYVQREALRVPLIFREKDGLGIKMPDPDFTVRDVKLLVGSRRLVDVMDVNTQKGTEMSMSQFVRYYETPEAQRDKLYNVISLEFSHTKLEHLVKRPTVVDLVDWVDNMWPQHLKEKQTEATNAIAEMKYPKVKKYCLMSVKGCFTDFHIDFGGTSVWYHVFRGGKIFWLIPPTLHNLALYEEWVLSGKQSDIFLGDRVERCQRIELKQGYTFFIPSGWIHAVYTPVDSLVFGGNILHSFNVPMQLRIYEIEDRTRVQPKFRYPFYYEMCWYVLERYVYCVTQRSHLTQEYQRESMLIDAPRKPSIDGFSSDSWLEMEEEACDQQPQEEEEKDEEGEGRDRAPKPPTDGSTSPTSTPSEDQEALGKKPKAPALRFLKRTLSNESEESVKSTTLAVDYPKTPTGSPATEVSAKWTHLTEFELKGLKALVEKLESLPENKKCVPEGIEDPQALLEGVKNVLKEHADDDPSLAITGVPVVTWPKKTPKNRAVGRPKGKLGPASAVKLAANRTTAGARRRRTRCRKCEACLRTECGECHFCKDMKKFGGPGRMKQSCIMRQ
Method in brief: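 Reactions ran 1 h at room temperature with 0.3 nM FBXL10 (aa 1-650, baculovirus). Substrates were 30 nM biotin-H3K36me2 peptide and 0.2 µM α-ketoglutarate in pH 7.3 HEPES buffer containing Fe(II) and ascorbate.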

Row | Structure (SMILES) | IC50 [µM]
1 | Clc1ccc(Cn2cnc(-c3cc4[nH]nnc4cn3)c2)cc1 [Example 47, 1-[(4-chlorophenyl)methyl]-4-{1H-[1,2,3]triazolo[4,5-c]pyridin-6-yl}-1H-imidazole] | ≤ 0.1

same assay, conditions: Table 5

Row | Structure (SMILES) | IC50 [µM]
2 | FC(F)(F)c1[nH]nnc1-c1ccnc(-c2cn(CCc3ccccc3Cl)cn2)c1 [Example 57] | ≤ 0.1
3 | Fc1cccc(F)c1Cn1cnc(-c2cc(-c3nn[nH]c3C(F)(F)F)ccn2)c1 [Example 69, 2-{1-[(2,6-difluorophenyl)methyl]-1H-imidazol-4-yl}-4-[5-(trifluoromethyl)-1H-1,2,3-triazol-4-yl]pyridine] | ≤ 0.1
4 | CC(c1ccccc1)n1cnc(-c2cc(-c3nn[nH]c3C(F)(F)F)ccn2)c1 (stereo not drawn) [Example 73, 2-[1-(1-phenylethyl)-1H-imidazol-4-yl]-4-[5-(trifluoromethyl)-1H-1,2,3-triazol-4-yl]pyridine] | ≤ 0.1
5 | FC(F)(F)c1ccccc1CCn1cnc(-c2cc(-c3nn[nH]c3C(F)(F)F)ccn2)c1 [Example 60, 4-[5-(trifluoromethyl)-1H-1,2,3-triazol-4-yl]-2-(1-{2-[2-(trifluoromethyl)phenyl]ethyl}-1H-imidazol-4-yl)pyridine] | 0.1 to 1
6 | Fc1ccccc1Cn1cnc(-c2cc(-c3nn[nH]c3C(F)(F)F)ccn2)c1 [Example 62, 2-{1-[(2-fluoroprtenyl)methyl]-1H-imidazol-4-yl}-4-[5-(trifluoromethyl)-1H-1,2,3-triazol-4-yl]pyridine] | ≤ 0.1
7 | Fc1cccc(CCn2cnc(-c3cc(-c4nn[nH]c4C(F)(F)F)ccn3)c2)c1 [Example 78, 2-{1-[2-(3-fluorophenyl)ethyl]-1H-imidazol-4-yl}-4-[5-(trifluoromethyl)-1H-1,2,3-triazol-4-yl]pyridine] | ≤ 0.1
8 | Fc1ccccc1CCn1cnc(-c2cc(-c3nn[nH]c3C(F)(F)F)ccn2)c1 [Example 84, 2-{1-[2-(2-fluorophenyl)ethyl]-1H-imidazol-4-yl}-4-[5-(trifluoromethyl)-1H-1,2,3-triazol-4-yl]pyridine] | ≤ 0.1
9 | Fc1ccc(Cn2cnc(-c3cc(-c4nn[nH]c4C(F)(F)F)ccn3)c2)cc1 [Example 61, 2-{1-[(4-fluorophenyl)methyl]-1H-imidazol-4-yl}-4-[5-(trifluoromethyl)-1H-1,2,3-triazol-4-yl]pyridine] | ≤ 0.1

Further lines, results first:

Row | IC50 [µM] | Structure (SMILES)
10 | ≤ 0.1 | Fc1cccc(F)c1CCn1cnc(-c2cc(-c3nn[nH]c3C(F)(F)F)ccn2)c1 [Example 87, 2-{1-[2-(2,6-difluorophenyl)ethyl]-1H-imidazol-4-yl}-4-[5-(trifluoromethyl)-1H-1,2,3-triazol-4-yl]pyridine]
11 | 0.1 to 1 | Fc1cccc2c1CCCC2Cn1cnc(-c2cc(-c3nn[nH]c3C(F)(F)F)ccn2)c1 (stereo not drawn) [Example 99, 2-{1-[(5-fluoro-1,2,3,4-tetrahydronaphthalen-1-yl)methyl]-1H-imidazol-4-yl}-4-[5-(trifluoromethyl)-1H-1,2,3-triazol-4-yl]pyridine]
12 | 0.1 to 1 | Fc1ccc2c(c1)C(Cn1cnc(-c3cc(-c4nn[nH]c4C(F)(F)F)ccn3)c1)CCC2 (stereo not drawn) [Example 101, 2-{1-[(7-fluoro-1,2,3,4-tetrahydronaphthalen-1-yl)methyl]-1H-imidazol-4-yl}-4-[5-(trifluoromethyl)-1H-1,2,3-triazol-4-yl]pyridine]
13 | 1 to 10 | Cc1ccc2c(c1)CCCC2Cn1cnc(-c2cc(-c3nn[nH]c3C(F)(F)F)ccn2)c1 (stereo not drawn) [Example 102, 2-{1-[(6-methyl-1,2,3,4-tetrahydronaphthalen-1-yl)methyl]-1H-imidazol-4-yl}-4-[5-(trifluoromethyl)-1H-1,2,3-triazol-4-yl]pyridine]
14 | 0.1 to 1 | Fc1ccc2c(c1)CCCC2Cn1cnc(-c2cc(-c3nn[nH]c3C(F)(F)F)ccn2)c1 (stereo not drawn) [Example 100, 2-{1-[(6-fluoro-1,2,3,4-tetrahydronaphthalen-1-yl)methyl]-1H-imidazol-4-yl}-4-[5-(trifluoromethyl)-1H-1,2,3-triazol-4-yl]pyridine]
15 | ≤ 0.1 | FC(F)(F)c1[nH]nnc1-c1ccnc(-c2cn(CCc3ccc(Cl)cc3)cn2)c1 [Example 92, 2-{1-[2-(4-chlorophenyl)ethyl]-1H-imidazol-4-yl}-4-[5-(trifluoromethyl)-1H-1,2,3-triazol-4-yl]pyridine]
